Test results taken from US8541380B2, “C-aryl glucoside SGLT2 inhibitors and pharmaceutical compositions comprising same” (Green Cross Corporation, priority 2009, dated 2013).
pIC50: −log10 of the molar value.

biological target: human SGLT2 (Homo sapiens (Human), UniProt P31639); assay: hSGLT2 inhibitory activity, sodium-dependent 14C-AMG glucose transport assay in CHO cells expressing hSGLT2; format: cell-based; details: 14C-AMG uptake, CHO cells expressing hSGLT2, 37° C. for 2 h
Text: Human SGLT2 (hSGLT2) gene was amplified by PCR from cDNA-Human Adult Normal Tissue Kidney (Invitrogen, Carlsbad, Calif.). The hSGLT2 sequence was cloned into pcDNA3.1(+) for mammalian expression and were stably transfected into Chinese hamster ovary (CHO) cells. SGLT2-expressing clones were selected based on resistance to G418 antibiotic (Geneticin®, Invitrogen, Carlsbad, Calif.) and activity in the ^14C-α-methyl-D-glucopyranoside (^14C-AMG) uptake assay.
For sodium-dependent glucose transport assay, cells expressing hSGLT2 were seeded into a 96-well culture plate at a density of 5×10^4 cells/well in RPMI medium 1640 containing 10% fetal bovine serum. The cells were used 1 day after plating. They were incubated in pretreatment buffer (10 mM HEPES, 5 mM Tris, 140 mM choline chloride, 2 mM KCl, 1 mM CaCl2, and 1 mM MgCl2, pH 7.4) at 37° C. for 10 min. They were then incubated in uptake buffer (10 mM HEPES, 5 mM Tris, 140 mM NaCl, 2 mM KCl, 1 mM CaCl2, 1 mM MgCl2, and 1 mM ^14C-nonlabeled AMG pH 7.4) containing ^14C-labeled (8 uM) and inhibitor or dimethyl sulfoxide (DMSO) vehicle at 37° C. for 2 h. Cells were washed twice with washing buffer (pretreatment buffer containing 10 mM AMG at room temperature) and then the radioactivity was measured using a liquid scintillation counter.

human SGLT2, sequence (P31639 whole entry): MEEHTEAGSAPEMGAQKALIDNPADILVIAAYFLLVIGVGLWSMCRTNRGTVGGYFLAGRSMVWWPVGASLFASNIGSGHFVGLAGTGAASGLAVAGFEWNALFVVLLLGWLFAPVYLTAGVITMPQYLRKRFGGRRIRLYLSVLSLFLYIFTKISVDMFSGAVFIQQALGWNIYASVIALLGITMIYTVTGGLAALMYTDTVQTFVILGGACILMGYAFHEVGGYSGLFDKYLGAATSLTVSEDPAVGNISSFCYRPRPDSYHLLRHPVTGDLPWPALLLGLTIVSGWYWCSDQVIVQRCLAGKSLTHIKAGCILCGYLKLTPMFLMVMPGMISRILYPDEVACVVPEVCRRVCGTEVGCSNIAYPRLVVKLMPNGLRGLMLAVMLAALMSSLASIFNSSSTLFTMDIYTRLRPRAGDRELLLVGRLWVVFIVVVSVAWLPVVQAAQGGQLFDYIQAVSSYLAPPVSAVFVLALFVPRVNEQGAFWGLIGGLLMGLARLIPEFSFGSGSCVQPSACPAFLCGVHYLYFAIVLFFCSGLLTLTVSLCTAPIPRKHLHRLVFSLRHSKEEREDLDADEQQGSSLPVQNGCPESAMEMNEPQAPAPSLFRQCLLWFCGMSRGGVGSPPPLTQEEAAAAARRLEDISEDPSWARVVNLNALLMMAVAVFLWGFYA

| Structure (SMILES) | pIC50 |
| --- | --- |
| Cc1ccc(-c2nnc(Cc3cc([C@@H]4O[C@H](CO)[C@@H](O)[C@H](O)[C@H]4O)ccc3Cl)s2)o1 [Example 2, (2S,3R,4R,5S,6R)-2-(4-Chloro-3-((5-(5-methylfuran-2-yl)-1,3,4-thiadiazol-2-yl)methyl)phenyl)-6-(hydroxymethyl)-tetrahydro-2H-pyran-3,4,5-triol] | 7.23 |
| Cc1ccoc1-c1nnc(Cc2cc([C@@H]3O[C@H](CO)[C@@H](O)[C@H](O)[C@H]3O)ccc2Cl)s1 [Example 3, (2S,3R,4R,5S,6R)-2-(4-Chloro-3-((5-(3-methylfuran-2-yl)-1,3,4-thiadiazol-2-yl)methyl)phenyl)-6-(hydroxymethyl)-tetrahydro-2H-pyran-3,4,5-triol] | 6.97 |
| Cc1ccsc1-c1nnc(Cc2cc([C@@H]3O[C@H](CO)[C@@H](O)[C@H](O)[C@H]3O)ccc2Cl)s1 [Example 7, (2S,3R,4R,5S,6R)-2-(4-chloro-3-((5-(3-methylthiophen-2-yl)-1,3,4-thiadiazol-2-yl)methyl)phenyl)-6-(hydroxymethyl)-tetrahydro-2H-pyran-3,4,5-triol] | 6.12 |
| OC[C@H]1O[C@@H](c2ccc(Cl)c(Cc3nnc(-c4ccsc4)s3)c2)[C@H](O)[C@@H](O)[C@@H]1O [Example 10, (2S,3R,4R,5S,6R)-2-(4-Chloro-3-((5-(thiophen-3-yl)-1,3,4-thiadiazol-2-yl)methyl)phenyl)-6-(hydroxymethyl)tetrahydro-2H-pyran-3,4,5-triol] | 8.45 |
| Cc1cc(-c2nnc(Cc3cc([C@@H]4O[C@H](CO)[C@@H](O)[C@H](O)[C@H]4O)ccc3Cl)s2)no1 [Example 12, (2S,3R,4R,5S,6R)-2-(4-Chloro-3-((5-(5-methylisoxazol-3-yl)-1,3,4-thiadiazol-2-yl)methyl)phenyl)-6-(hydroxymethyl)tetrahydro-2H-pyran-3,4,5-triol] | 6.59 |
| OC[C@H]1O[C@@H](c2ccc(Cl)c(Cc3nnc(-c4ccccn4)s3)c2)[C@H](O)[C@@H](O)[C@@H]1O [Example 15, (2S,3R,4R,5S,6R)-2-(4-Chloro-3-((5-(pyridin-2-yl)-1,3,4-thiadiazol-2-yl)methyl)phenyl)-6-(hydroxymethyl)tetrahydro-2H-pyran-3,4,5-triol] | 7.52 |
| Cc1ccc(-c2nnc(Cc3cc([C@@H]4O[C@H](CO)[C@@H](O)[C@H](O)[C@H]4O)ccc3Cl)s2)cn1 [Example 16, (2S,3R,4R,5S,6R)-2-(4-Chloro-3-((5-(6-methylpyridin-3-yl)-1,3,4-thiadiazol-2-yl)methyl)phenyl)-6-(hydroxymethyl)-tetrahydro-2H-pyran-3,4,5-triol] | 7.01 |
| OC[C@H]1O[C@@H](c2ccc(Cl)c(Cc3nnc(-c4ccc5ccccc5n4)s3)c2)[C@H](O)[C@@H](O)[C@@H]1O [Example 17, (2S,3R,4R,5S,6R)-2-(4-Chloro-3-((5-(quinolin-2-yl)-1,3,4-thiadiazol-2-yl)methyl)phenyl)-6-(hydroxymethyl)-tetrahydro-2H-pyran-3,4,5-triol] | 6.25 |
| OC[C@H]1O[C@@H](c2ccc(Cl)c(Cc3nnc(-c4cc5ccccc5cn4)s3)c2)[C@H](O)[C@@H](O)[C@@H]1O [Example 18, (2S,3R,4R,5S,6R)-2-(4-Chloro-3-((5-(isoquinolin-3-yl)-1,3,4-thiadiazol-2-yl)methyl)phenyl)-6-(hydroxymethyl)-tetrahydro-2H-pyran-3,4,5-triol] | 7.09 |
| OC[C@H]1O[C@@H](c2ccc(Cl)c(Cc3nnc(C4CCCC4)s3)c2)[C@H](O)[C@@H](O)[C@@H]1O [Example 19, (2S,3R,4R,5S,6R)-2-(4-Chloro-3-((5-cyclopentyl-1,3,4-thiadiazol-2-yl)methyl)phenyl)-6-(hydroxymethyl)tetrahydro-2H-pyran-3,4,5-triol] | 6.35 |
| OC[C@H]1OC(c2ccc(Cl)c(Cc3nnc(-c4ccncc4)s3)c2)[C@H](O)[C@@H](O)[C@@H]1O (stereo partly drawn) [Example 20, (3R,4R,5S,6R)-2-(4-Chloro-3-((5-(pyridin-4-yl)-1,3,4-thiadiazol-2-yl)methyl)phenyl)-6-(hydroxymethyl)-tetrahydro-2H-pyran-3,4,5-triol] | 7.28 |

The remaining lines, values ahead:

| pIC50 | Structure (SMILES) |
| --- | --- |
| 8.15 | OC[C@H]1O[C@@H](c2ccc(Cl)c(Cc3nnc(-c4ccco4)s3)c2)[C@H](O)[C@@H](O)[C@@H]1O [Example 1, (2S,3R,4R,5S,6R)-2-(4-Chloro-3-((5-(furan-2-yl)-1,3,4-thiadiazol-2-yl)methyl)phenyl)-6-(hydroxymethyl)-tetrahydro-2H-pyran-3,4,5-triol] |
| 7.75 | OC[C@H]1O[C@@H](c2ccc(Cl)c(Cc3nnc(-c4ccoc4)s3)c2)[C@H](O)[C@@H](O)[C@@H]1O [Example 4, (2S,3R,4R,5S,6R)-2-(4-Chloro-3-((5-(furan-3-yl)-1,3,4-thiadiazol-2-yl)methyl)phenyl)-6-(hydroxymethyl)tetrahydro-2H-pyran-3,4,5-triol] |
| 7.84 | OC[C@H]1O[C@@H](c2ccc(Cl)c(Cc3nnc(-c4cccs4)s3)c2)[C@H](O)[C@@H](O)[C@@H]1O [Example 5, (2S,3R,4R,5S,6R)-2-(4-Chloro-3-((5-(thiophen-2-yl)-1,3,4-thiadiazol-2-yl)methyl)phenyl)-6-(hydroxymethyl)tetrahydro-2H-pyran-3,4,5-triol] |
| 7.35 | OC[C@H]1O[C@@H](c2ccc(Cl)c(Cc3nnc(-c4cc5ccccc5s4)s3)c2)[C@H](O)[C@@H](O)[C@@H]1O [Example 6, (2S,3R,4R,5S,6R)-2-(3-((5-(Benzo[b]thiophen-2-yl)-1,3,4-thiadiazol-2-yl)methyl)-4-chlorophenyl)-6-(hydroxymethyl)-tetrahydro-2H-pyran-3,4,5-triol] |
| 7.74 | OC[C@H]1O[C@@H](c2ccc(Cl)c(Cc3nnc(-c4ccc(Cl)s4)s3)c2)[C@H](O)[C@@H](O)[C@@H]1O [Example 8, (2S,3R,4R,5S,6R)-2-(4-Chloro-3-((5-(5-chlorothiophen-2-yl)-1,3,4-thiadiazol-2-yl)methyl)phenyl)-6-(hydroxymethyl)-tetrahydro-2H-pyran-3,4,5-triol] |
| 6.15 | OC[C@H]1O[C@@H](c2ccc(Cl)c(Cc3nnc(-c4sccc4Cl)s3)c2)[C@H](O)[C@@H](O)[C@@H]1O [Example 9, (2S,3R,4R,5S,6R)-2-(4-Chloro-3-((5-(3-chlorothiophen-2-yl)-1,3,4-thiadiazol-2-yl)methyl)phenyl)-6-(hydroxymethyl)tetrahydro-2H-pyran-3,4,5-triol] |
| 6.92 | Cn1cccc1-c1nnc(Cc2cc([C@@H]3O[C@H](CO)[C@@H](O)[C@H](O)[C@H]3O)ccc2Cl)s1 [Example 11, (2S,3R,4R,5S,6R)-2-(4-Chloro-3-((5-(1-methyl-1H-pyrrol-2-yl)-1,3,4-thiadiazol-2-yl)methyl)phenyl)-6-(hydroxymethyl)-tetrahydro-2H-pyran-3,4,5-triol] |
| 7.66 | OC[C@H]1O[C@@H](c2ccc(Cl)c(Cc3nnc(-c4cscn4)s3)c2)[C@H](O)[C@@H](O)[C@@H]1O [Example 13, (2S,3R,4R,5S,6R)-2-(4-Chloro-3-((5-(thiazol-4-yl)-1,3,4-thiadiazol-2-yl)methyl)phenyl)-6-(hydroxymethyl)tetrahydro-2H-pyran-3,4,5-triol] |
| 7.14 | OC[C@H]1O[C@@H](c2ccc(Cl)c(Cc3nnc(-c4cnc(-c5ccncc5)s4)s3)c2)[C@H](O)[C@@H](O)[C@@H]1O [Example 14, (2S,3R,4R,5S,6R)-2-(4-Chloro-3-((5-(2-(pyridin-4-yl)thiazol-5-yl)-1,3,4-thiadiazol-2-yl)methyl)phenyl)-6-(hydroxymethyl)-tetrahydro-2H-pyran-3,4,5-triol] |
